Consider 20 compounds from ChEMBL document CHEMBL1201862, “PubChem BioAssay data set” (2004).

For test [1], the target named is T1, Heat shock factor protein 1 (Mus musculus, UniProt P38532).
T1 sequence (P38532 whole entry): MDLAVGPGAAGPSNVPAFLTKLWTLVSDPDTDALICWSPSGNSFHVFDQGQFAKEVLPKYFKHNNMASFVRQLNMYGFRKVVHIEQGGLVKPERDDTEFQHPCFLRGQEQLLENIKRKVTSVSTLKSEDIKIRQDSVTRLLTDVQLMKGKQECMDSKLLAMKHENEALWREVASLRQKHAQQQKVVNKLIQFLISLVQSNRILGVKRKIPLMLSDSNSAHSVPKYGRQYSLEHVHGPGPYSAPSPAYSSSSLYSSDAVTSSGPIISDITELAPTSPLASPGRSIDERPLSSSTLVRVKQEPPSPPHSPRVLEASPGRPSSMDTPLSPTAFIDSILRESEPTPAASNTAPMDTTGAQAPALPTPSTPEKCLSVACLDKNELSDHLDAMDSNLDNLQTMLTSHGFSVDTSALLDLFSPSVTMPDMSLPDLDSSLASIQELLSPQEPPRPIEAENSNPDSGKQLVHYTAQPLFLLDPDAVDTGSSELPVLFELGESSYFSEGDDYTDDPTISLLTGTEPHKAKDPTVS
In words: HSF1 potentiators in luciferase reporter cells, confirmation, cell-based, NIH3T3, luminescence, dose retest (AID 435004).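 Further: stress induced by proteasome inhibitor MG132 added 30 min after compound; luciferase reporter driven by HSF1 response element in NIH3T3 cells; actives raise luminescence as potentiators of the MG132 stress response.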 The format is functional.

The target of the next test is Large T antigen (Simian virus 40, UniProt P03070). The format is functional, Betapolyomavirus macacae.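 Further: Confirmatory-stage PubChem screen for compounds that inhibit SV40 T antigen.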
Large T antigen, sequence (P03070 whole entry): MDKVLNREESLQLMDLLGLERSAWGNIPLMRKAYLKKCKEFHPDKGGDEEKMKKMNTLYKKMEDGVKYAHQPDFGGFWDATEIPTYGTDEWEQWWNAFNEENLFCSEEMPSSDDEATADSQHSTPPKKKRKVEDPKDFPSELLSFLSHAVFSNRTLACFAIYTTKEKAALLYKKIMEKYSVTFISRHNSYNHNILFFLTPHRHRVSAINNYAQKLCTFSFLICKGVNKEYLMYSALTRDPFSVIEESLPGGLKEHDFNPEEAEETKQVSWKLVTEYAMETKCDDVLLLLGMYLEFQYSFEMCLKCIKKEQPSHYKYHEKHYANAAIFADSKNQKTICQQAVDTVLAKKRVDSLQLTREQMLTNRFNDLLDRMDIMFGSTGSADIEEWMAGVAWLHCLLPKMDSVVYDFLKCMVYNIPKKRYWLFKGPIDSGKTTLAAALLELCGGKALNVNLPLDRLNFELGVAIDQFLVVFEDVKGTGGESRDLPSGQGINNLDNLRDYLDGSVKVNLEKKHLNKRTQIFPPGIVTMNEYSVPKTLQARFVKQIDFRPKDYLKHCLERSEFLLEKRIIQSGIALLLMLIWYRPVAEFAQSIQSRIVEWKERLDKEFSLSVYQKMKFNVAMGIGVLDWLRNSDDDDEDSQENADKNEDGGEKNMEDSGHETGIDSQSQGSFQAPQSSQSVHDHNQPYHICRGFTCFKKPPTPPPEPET
A short description of test [2]: inhibitors of intracellular T. cruzi replication, confirmation, NIH3T3 host cells, beta-gal luminescence (AID 2044).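 Further: intracellular parasites grown in NIH/3T3 mouse fibroblasts as host cells; luminescent beta-galactosidase reporter signal from transgenic T. cruzi replicating inside host cells; inhibitors lower the luminescence signal.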 The format is functional, cell-based.
Test [3] is described as follows: cytotoxicity toward NIH3T3 fibroblasts, dose response, counter-screen, cell-based, ATP luminescence, mouse fibroblasts (AID 2010).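 Further: cells exposed to compound for about 90 hours before reading.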 The format is functional.
Test [4] deals with T2, Microphthalmia-associated transcription factor (Homo sapiens, UniProt O75030).
T2 sequence (O75030 whole entry): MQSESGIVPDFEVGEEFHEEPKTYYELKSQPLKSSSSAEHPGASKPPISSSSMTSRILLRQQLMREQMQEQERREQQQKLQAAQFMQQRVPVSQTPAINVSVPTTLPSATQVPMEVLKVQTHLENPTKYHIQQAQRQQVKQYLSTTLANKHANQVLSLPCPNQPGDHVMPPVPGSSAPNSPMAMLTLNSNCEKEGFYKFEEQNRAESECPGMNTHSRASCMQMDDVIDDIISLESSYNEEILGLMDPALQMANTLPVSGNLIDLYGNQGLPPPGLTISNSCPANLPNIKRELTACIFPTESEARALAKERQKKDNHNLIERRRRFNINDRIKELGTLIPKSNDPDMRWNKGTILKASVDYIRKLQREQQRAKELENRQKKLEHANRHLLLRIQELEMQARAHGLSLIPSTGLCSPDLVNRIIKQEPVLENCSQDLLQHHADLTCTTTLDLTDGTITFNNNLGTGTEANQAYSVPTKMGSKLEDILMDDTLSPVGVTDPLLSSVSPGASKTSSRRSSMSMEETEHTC
In words: TRPM1 promoter luciferase signal decrease, dose response, MITF inhibitor project, cell-based, SK-MEL-5, cherry-picked, set 3 (AID 493073).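 Further: SK-MEL-5 melanoma cells with luciferase driven by the MITF target TRPM1 promoter.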 Type of test: functional.

Test [5] is described as follows: NIH-3T3 fibroblast cytotoxicity, dose response, cytotoxicity control, cell-based, fluorescence, Alamar Blue, secondary assay (AID 2327).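 Further: NIH-3T3 mouse fibroblasts cultured with fluconazole at 8 µg/mL.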 Type of test: functional.
A short description of test [6]: C. albicans growth with fluconazole, confirmation, fluorescence, retest (AID 2467). Type of test: functional, cell-based.
For test [7], the target named is T1, Heat shock factor protein 1. Description: inhibition of MG132-induced HSE-luciferase signal, confirmation, cell-based, NIH3T3, luminescence, dose retest (AID 2382).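 Further: NIH3T3 fibroblasts with HSF1-driven luciferase reporter stressed by proteasome inhibitor MG132; luminescence from HSF1-driven luciferase expression after 8 hours of MG132 stress.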 The format is functional.
In another test the target is Paired box protein Pax-8 (Homo sapiens, UniProt Q06710). Description: inhibitors of PAX8-driven TPO luciferase reporter, dose response, RMG-I cells, cherry-pick (AID 687027).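 Further: luciferase reporter driven by Pax8 target thyroperoxidase promoter measured by SteadyGlo luminescence.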 Type of test: functional, cell-based.
Paired box protein Pax-8, sequence (Q06710 whole entry): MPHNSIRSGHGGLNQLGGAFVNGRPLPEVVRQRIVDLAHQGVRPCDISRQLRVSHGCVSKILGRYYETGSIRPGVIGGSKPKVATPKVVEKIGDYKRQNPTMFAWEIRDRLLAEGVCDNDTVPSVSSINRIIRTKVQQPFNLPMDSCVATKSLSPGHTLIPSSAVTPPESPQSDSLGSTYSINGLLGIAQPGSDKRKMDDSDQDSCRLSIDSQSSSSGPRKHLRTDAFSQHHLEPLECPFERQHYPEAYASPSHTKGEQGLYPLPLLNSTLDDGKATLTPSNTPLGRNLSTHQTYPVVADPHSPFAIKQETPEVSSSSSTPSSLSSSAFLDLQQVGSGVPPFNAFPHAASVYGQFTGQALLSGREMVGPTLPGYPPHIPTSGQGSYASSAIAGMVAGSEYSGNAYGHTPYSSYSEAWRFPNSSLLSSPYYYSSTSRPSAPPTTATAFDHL
In test [8] the target is T3, Rac GTPase-activating protein 1 (Homo sapiens, UniProt Q9H0H5).
T3 sequence (Q9H0H5 whole entry): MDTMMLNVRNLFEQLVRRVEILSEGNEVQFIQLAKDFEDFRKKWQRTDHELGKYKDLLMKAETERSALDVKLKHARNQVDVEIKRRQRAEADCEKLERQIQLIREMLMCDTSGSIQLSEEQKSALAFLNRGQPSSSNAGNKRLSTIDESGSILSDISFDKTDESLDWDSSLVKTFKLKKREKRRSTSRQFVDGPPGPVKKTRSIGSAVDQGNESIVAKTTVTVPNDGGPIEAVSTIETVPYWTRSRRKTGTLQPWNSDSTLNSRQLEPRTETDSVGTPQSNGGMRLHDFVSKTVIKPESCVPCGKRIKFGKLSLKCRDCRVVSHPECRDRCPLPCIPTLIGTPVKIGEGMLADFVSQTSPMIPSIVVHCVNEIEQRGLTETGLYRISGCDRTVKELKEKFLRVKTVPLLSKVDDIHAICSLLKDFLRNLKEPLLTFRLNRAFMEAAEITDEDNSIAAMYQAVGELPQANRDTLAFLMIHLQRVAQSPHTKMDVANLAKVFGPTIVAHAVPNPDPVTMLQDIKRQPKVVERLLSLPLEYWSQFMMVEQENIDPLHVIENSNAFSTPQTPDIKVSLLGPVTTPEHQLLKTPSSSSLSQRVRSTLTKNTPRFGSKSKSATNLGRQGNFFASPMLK
Description: MgcRacGAP GTPase-activating activity inhibitors, confirmation, biochemical, ADP Hunter fluorescence, primary and confirmatory (AID 624330). Type of test: functional.

The test system of a further test is INS1. Description: beta cell apoptosis inhibitors, cytokine rescue, dose response, luminescence, retest (AID 449756).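 Further: cell death triggered by IL-1 beta plus TNF-alpha plus IFN-gamma mixture; protective hits raise ATP signal compared with cytokine alone wells.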 The format is functional, cell-based. The settings on record: Rattus norvegicus.
Test [9] concerns the target Luciferin 4-monooxygenase (Photinus pyralis, UniProt P08659). In words: firefly luciferase enzyme inhibitors, dose response, biochemical, luminescence (AID 1891).
A short description of test [10]: Luminescence Cell-Based Dose Confirmation HTS to Identify Inhibitors of Platelet Dense Granule Release. [Related pubchem assays: 1663 (Primary HTS), 1678 (Summary of Project)]. Type of test: functional.
The target of a further test is T4, Cytochrome P450 1A2 (Homo sapiens, UniProt P05177).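 Further: PubChem cytochrome P450 panel assay, CYP1A2 panel member.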
T4 sequence (P05177 whole entry): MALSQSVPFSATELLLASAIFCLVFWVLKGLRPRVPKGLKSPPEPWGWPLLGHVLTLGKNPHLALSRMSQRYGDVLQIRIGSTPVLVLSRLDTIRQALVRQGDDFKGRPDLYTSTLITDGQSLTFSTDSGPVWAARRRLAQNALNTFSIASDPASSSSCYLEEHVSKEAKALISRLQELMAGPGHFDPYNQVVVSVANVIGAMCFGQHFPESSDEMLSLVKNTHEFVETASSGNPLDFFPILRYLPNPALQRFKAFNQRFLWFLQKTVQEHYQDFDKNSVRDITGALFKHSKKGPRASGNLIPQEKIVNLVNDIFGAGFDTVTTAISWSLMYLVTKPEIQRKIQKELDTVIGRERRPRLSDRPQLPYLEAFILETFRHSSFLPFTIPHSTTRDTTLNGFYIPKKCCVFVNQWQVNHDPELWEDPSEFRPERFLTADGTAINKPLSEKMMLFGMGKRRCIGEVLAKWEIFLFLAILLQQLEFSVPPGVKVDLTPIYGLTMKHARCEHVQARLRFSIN

The next test concerns the target Nonstructural protein 1 (Influenza A virus, UniProt Q194T2). Type of test: functional, Influenza A virus (A/California/07/2009(H1N1)).

The source made the active and inactive calls.

Nonstructural protein 1, sequence (Q194T2 whole entry): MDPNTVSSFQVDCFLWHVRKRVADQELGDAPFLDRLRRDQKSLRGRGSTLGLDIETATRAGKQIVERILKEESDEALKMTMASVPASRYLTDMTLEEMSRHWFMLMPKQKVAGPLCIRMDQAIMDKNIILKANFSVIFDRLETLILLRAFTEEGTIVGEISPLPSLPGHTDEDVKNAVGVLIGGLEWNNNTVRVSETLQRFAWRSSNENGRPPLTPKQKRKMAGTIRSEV
Luciferin 4-monooxygenase, sequence (P08659 whole entry): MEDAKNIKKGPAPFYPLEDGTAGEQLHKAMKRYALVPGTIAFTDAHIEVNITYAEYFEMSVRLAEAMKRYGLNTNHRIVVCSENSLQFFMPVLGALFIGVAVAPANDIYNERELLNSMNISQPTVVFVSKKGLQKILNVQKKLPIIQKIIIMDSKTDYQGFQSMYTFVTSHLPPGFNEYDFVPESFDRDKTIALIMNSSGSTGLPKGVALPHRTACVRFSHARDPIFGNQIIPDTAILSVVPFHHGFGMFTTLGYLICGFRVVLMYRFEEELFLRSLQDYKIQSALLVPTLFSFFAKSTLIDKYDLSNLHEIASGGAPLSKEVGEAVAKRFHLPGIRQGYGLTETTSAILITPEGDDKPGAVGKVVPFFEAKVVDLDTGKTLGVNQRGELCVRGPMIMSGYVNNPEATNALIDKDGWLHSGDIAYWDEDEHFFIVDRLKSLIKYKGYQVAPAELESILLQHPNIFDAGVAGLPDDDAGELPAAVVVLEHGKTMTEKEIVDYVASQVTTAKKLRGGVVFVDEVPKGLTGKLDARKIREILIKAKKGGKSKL

As to `COc1ccc(CCNC(=O)Nc2cccc([N+](=O)[O-])c2)cc1OC`, the EC50 in [1] was > 260 µM (inactive).
As for `CCc1cc2c(Nc3ccc(O)cc3)nc(C)nc2s1`, the concentration for half-maximal inhibition (IC50) at Large T antigen is 23.7 µM (active).
Same read-out and setting: the result for `CCOc1c(Br)cc(CNc2ccc(N3CCN(C(C)=O)CC3)cc2)cc1OC` reads 6.23 µM (active).
Take `CC(C)OC(=O)c1c(NC(=O)Cn2cnc([N+](=O)[O-])n2)sc2c1CCCC2`: the concentration giving a half-maximal response (EC50) in test [2] is 0.203 µM (active); in test [3], > 60 µM (not active); in test [1], > 260 µM (inactive).
In the case of `C=C1CCC[C@]2(C)C[C@H]3OC(=O)C(CN4CCCCC4CO)[C@H]3CC12` (stereo partly specified), the concentration at half-maximal activity (AC50) in test [4] is 11 µM (active).
With `CCN(CC)c1ccc(NC(=O)CSc2nc3nc(C)cc(C)c3c(=O)[nH]2)cc1`, the IC50 on Large T antigen was 10.2 µM (active).
On to `Cc1cccc2sc(N(CCCN(C)C)C(=O)c3nc4ccccc4s3)nc12`, for which the AC50 in [4] is 10.9 µM (active).
`CC1=C(C(=O)c2ccccc2)C(c2ccc(O)cc2)NC(S)=N1` (stereo unspecified): the half-maximal inhibitory concentration (IC50) on Large T antigen was > 100 µM (active).
Turning to `Cc1ccc(O)c(NC(=O)CSc2n[nH]c(-c3ccccc3)n2)c1`, in [1], the concentration giving a half-maximal response (EC50) was 10 µM (active).
Turning to `CCCCCCCCC(=O)NNC(=O)c1c(O)c2ccccc2n(CC)c1=O`, the EC50 in test [5] was > 150 µM (inactive); in test [6], 2.96 µM (active).
With `CSc1sc(C(=O)Nc2ccc(F)cc2F)c2c1C=CCC2`, in test [1], the EC50 is > 260 µM (inactive).
Same read-out and setting: the result for `Cc1ccc(-n2cc(CNCCN3CCOC3=O)c(-c3cccc(C)c3)n2)cc1` reads > 260 µM (inactive).
Regarding `CCC(=O)N1CCN(c2ccc(NC(=O)c3ccc([N+](=O)[O-])o3)cc2)CC1`, the concentration giving a half-maximal response (EC50) in [7] is > 195 µM (not active); in test [2], 5.98 µM (active); in test [3] it was 7.54 µM (active). For the same compound, the AC50 is 8.68 µM (active) in test [4] and 5.31 µM (active) on Paired box protein Pax-8.
Take `CC1CN(C(=S)NC(=O)C2CCCCC2)CC(C)O1` (stereo unspecified): the EC50 in [1] is > 260 µM (inactive).
In the case of `COc1ccc(Nc2ccc(Cl)cc2)c(C(=O)O)c1`, on Large T antigen, the concentration for half-maximal inhibition (IC50) is 18 µM (active).
`CN(C)c1ccc(NC2=C([N+](=O)[O-])CS(=O)(=O)C2)cc1`: the IC50 at Large T antigen was 5.71 µM (active); in test [8], 42.7 µM (active).
As for `O=c1c2ccccc2nc(SCc2nnc(-c3ccccc3Br)o2)n1Cc1ccco1`, in test [1], the EC50 is > 260 µM (inactive).
In the case of `O=C(N/N=C/C=C(\O)c1ccc([N+](=O)[O-])cc1)c1ccccc1`, the concentration giving a half-maximal response (EC50) in test [2] is 2.02 µM (active); in test [3], 17.6 µM (active). Further, the values for the AC50 (in test [4]; with INS1) were 9.19 µM (active) and 1.76 µM (active), respectively.
With `COc1cc(/C=N/NC(N)=O)c(Br)cc1OCC(=O)Nc1ccccc1C`, the EC50 in test [9] and in test [10] was > 112 µM (not active) in each case. Further, the AC50 in test [4] was 17.8 µM (active); on Cytochrome P450 1A2 it was 14.1 µM (inconclusive).
For the compound `O=C1C=CC(=C(c2ccc(O)cc2)c2ccc(O)cc2)C=C1` [AURIN], the half-maximal inhibitory concentration (IC50) at Nonstructural protein 1 is 59.1 µM (active). Also, the AC50 in test [4] was 9.92 µM (active); on Paired box protein Pax-8, 8.81 µM (active).
